The text below walks through data of patent US10570131B2, “Heterocyclic compounds and their use in preventing or treating bacterial infections” (MUTABILIS, priority 2015, dated 2020).

Where a name gives a salt, the structure may show the parent alone. Where only a bound is given, the exact number is not on record here.

Assay [1] concerns E. coli 190317. Kind of assay: MIC of compounds alone, broth microdilution. It is filed as cell-based. As to conditions: Escherichia coli; strain 190317 (TEM-1, SHV-12, CTX-M-15, OXA-1); read-out: MIC compounds of the invention alone. A digest of the protocol:
(§1)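 Broth microdilution MIC with compound alone or combined with ceftazidime against genotyped strains. Inoculum 5×10^5 cfu/mL in cation-adjusted Mueller-Hinton broth, 16-20 h at 35° C in ambient air. MIC = lowest concentration preventing visible growth.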

In assay [2] the test system is E. cloacae P99. Kind of assay: MIC of compounds alone, broth microdilution. It counts as cell-based. The note with it: Enterobacter cloacae; strain P99 (AmpC); read-out: MIC compounds of the invention alone. In short, it runs like this: as §1
The test system of a further assay is E. cloacae 260508. Kind of assay: MIC of ceftazidime alone and in combination with compounds (synergy), broth microdilution. It is filed as cell-based. As to conditions: MIC of ceftazidime with compound fixed at 4 μg/mL; strain 260508 (TEM-1, CTX-M-15).
In the next assay the target is T1, AmpC (PAE) (Pseudomonas aeruginosa, UniProt P24735).
T1 construct: made in house; host or cells: E. coli expression vector
T1 sequence (P24735 27-397): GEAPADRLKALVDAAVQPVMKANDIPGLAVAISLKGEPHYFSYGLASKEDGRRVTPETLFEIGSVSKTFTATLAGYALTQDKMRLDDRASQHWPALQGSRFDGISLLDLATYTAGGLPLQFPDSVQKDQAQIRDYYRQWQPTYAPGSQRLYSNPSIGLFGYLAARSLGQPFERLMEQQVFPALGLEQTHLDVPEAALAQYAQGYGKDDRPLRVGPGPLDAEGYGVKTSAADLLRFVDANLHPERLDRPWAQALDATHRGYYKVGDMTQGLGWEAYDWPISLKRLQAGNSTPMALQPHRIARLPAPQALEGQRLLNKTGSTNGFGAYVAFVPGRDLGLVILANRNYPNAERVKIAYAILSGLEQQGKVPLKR
Kind of assay: biochemical. Set-up: species or system P. aeruginosa. The method, then: Method 1: β-lactamase Inhibitory Activity, Determination of IC50 (Table 1)
Enzyme activity was monitored by spectrophotometric measurement of nitrocefin (NCF—TOKU-E, N005) hydrolysis at 485 nm, at room temperature and in assay buffer A: 100 mM Phosphate pH7, 2% glycerol and 0.1 mg/mL Bovine serum albumin (Sigma, B4287). Enzymes were cloned in E. coli expression vector, expressed and purified in house using classical procedures. To a transparent polystyrene plate (Corning, 3628) were added in each well 5 μL DMSO or inhibitor dilutions in DMSO and 80 μL enzyme in buffer A. Plates were immediately read at 485 nm in a microplate spectrophotometer (BioTek, PowerWave HT) to enable background subtraction. After 30 min of pre-incubation at room temperature, 15 μL of NCF (200 μM final) were finally added in each well. Final enzyme concentrations were 0.1 nM (TEM-1), 0.075 nM (SHV-1), 0.4 nM (CTX-M-15), 1 nM (KPC-2), 0.2 nM (P99 AmpC), 0.2 nM (CMY-37), 0.4 nM (AmpC P. aeruginosa), 0.2 nM (OXA-1), 1.2 nM (OXA-11), 0.4 nM (OXA-15) and 0.3 nM (OXA-48). After 20 min incubation at room temperature, plates were once again read at 485 nm. Enzyme activity was obtained by subtracting the final signal by the background, and was converted to enzyme inhibition using non inhibited wells. IC50 curves were fitted to a classical Langmuir equilibrium model with Hill slope using XLFIT (IDBS).

Another assay has as its system E. coli UFR32. Kind of assay: MIC of ceftazidime alone and in combination with compounds (synergy), broth microdilution. The note with it: MIC of ceftazidime with compound fixed at 4 μg/mL; strain UFR32 (TEM-1, VEB-1, OXA-10). It is filed as cell-based.
The subject of a further assay is K. oxytoca UFR21. The description is as above. It is filed as cell-based. As to conditions: MIC of ceftazidime with compound fixed at 4 μg/mL; strain UFR21 (TEM-1, CTX-M-15, OXA-48).
For the next assay, the system named is K. pneumoniae 160143. Described as above. It is filed as cell-based. The note with it: MIC of ceftazidime with compound fixed at 4 μg/mL; strain 160143 (TEM-1, SHV-1, CTX-M-15, KPC-2, OXA-1).
The test system of another assay is E. cloacae UFR70. The assay is described as above. As to conditions: MIC of ceftazidime with compound fixed at 4 μg/mL; strain UFR70 (TEM-1, CTX-M-15, CMY-2, OXA-1, Porin loss). It counts as cell-based.
A further assay has as its system E. cloacae UFR85. The description is as above. It is filed as cell-based. The note with it: MIC of ceftazidime with compound fixed at 4 μg/mL; strain UFR85 (TEM-1, CTX-M-15, derepressed AmpC).
Another assay relates to K. pneumoniae 6299. Kind of assay: microbe, parasite or virus in culture. As to conditions: Klebsiella pneumoniae, 6299, read-out: MIC compounds of the invention alone. It is filed as cell-based. The method, then: (§2) Compounds of the present invention were assessed against genotyped bacterial strains alone or in combination with the β-lactam ceftazidime (CAZ). […] Briefly, compounds alone according to the invention were prepared in DMSO and spotted (2 μL each) on sterile polystyrene plates (Corning, 3788). […] Log phase bacterial suspensions were adjusted to a final density of 5×10^5 cfu/mL in cation-adjusted Mueller-Hinton broth (Becton-Dickinson) and added to each well (98 μL). Microplates were incubated for 16-20 h at 35° C. in ambient air. The MIC of the compounds was defined as the lowest concentration of said compounds that prevented bacterial growth as read by visual inspection.

In another assay the test system is E. coli 131119. Kind of assay: microbe, parasite or virus in culture. It is filed as cell-based. As to conditions: Escherichia coli, 131119, read-out: MIC compounds of the invention alone. The method, then: as §2
The next assay deals with K. pneumoniae BAA-1898. Kind of assay: microbe, parasite or virus in culture. It counts as cell-based. As to conditions: Klebsiella pneumoniae, BAA1898, read-out: MIC compounds of the invention alone. How it is done: as §2
The next assay has as its system P. aeruginosa CIP105250. Kind of assay: microbe, parasite or virus in culture. As to conditions: Pseudomonas aeruginosa, CIP105250, read-out: MIC compounds of the invention alone. It is filed as cell-based. The method, then: as §2
Assay [3] deals with E. coli 190317. Kind of assay: MIC of ceftazidime alone and in combination with compounds (synergy), broth microdilution. As to conditions: MIC of ceftazidime with compound fixed at 4 μg/mL; strain 190317 (TEM-1, SHV-12, CTX-M-15, OXA-1). It counts as cell-based.
The next assay deals with K. pneumoniae UFR24. It is filed as cell-based. The note with it: MIC of ceftazidime with compound fixed at 4 μg/mL; strain UFR24 (TEM-1, SHV-2, SHV-11, OXA-1, OXA-48, OXA-47).
The subject of assay [4] is E. cloacae P99. Kind of assay: MIC of ceftazidime alone and in combination with compounds (synergy), broth microdilution. The note with it: MIC of ceftazidime with compound fixed at 4 μg/mL; strain P99 (AmpC). It is filed as cell-based.
For the next assay, the system named is P. aeruginosa UFR35. The description is as above. It is filed as cell-based. As to conditions: MIC of ceftazidime with compound fixed at 4 μg/mL; strain UFR35 (OXA-23). A digest of the protocol:
as §1

The subject of a further assay is P. aeruginosa UFR92. Described as above. It is filed as cell-based. As to conditions: MIC of ceftazidime with compound fixed at 4 μg/mL; strain UFR92 (derepressed AmpC, OprD−). In short, it runs like this: as §1
The test system of the next assay is P. aeruginosa UFR90. Described as above. It is filed as cell-based. As to conditions: MIC of ceftazidime with compound fixed at 4 μg/mL; strain UFR90 (derepressed AmpC, OprD−). A digest of the protocol:
as §1

The test system of the next assay is E. cloacae UFR38. The description is as above. It counts as cell-based. The note with it: MIC of ceftazidime with compound fixed at 4 μg/mL; strain UFR38 (CTX-M-15, NDM-1).

With `CNC(=O)CON=C1C[C@@H](C(N)=O)N2C[C@@H]1N(OS(=O)(=O)[O-])C2=O.[Na+]` (mixture of isomers) [Example 2, sodium [(2S,5S)-2-carbamoyl-4-[2-(methylamino)-2-oxo-ethoxy]imino-7-oxo-1,6-diazabicyclo[3.2.1]octan-6-yl] sulfate], the MIC in the assay with E. coli 190317 [1] was 4 µg/mL; with E. cloacae P99 [2], above 32 µg/mL; in the assay on K. pneumoniae 6299 it was above 32 µg/mL; in the assay with E. coli 131119, 8 µg/mL; in the assay with K. pneumoniae BAA-1898, above 32 µg/mL; in the assay on P. aeruginosa CIP105250, above 32 µg/mL. In addition, the “MIC, combination of CAZ and compounds of the invention at 4 μg/mL” value (“MIC, combination” below) stood at 1 µg/mL in the assay with E. cloacae 260508; 0.5 µg/mL with E. coli UFR32; 2 µg/mL in the assay with K. oxytoca UFR21; 8 µg/mL with K. pneumoniae 160143; 8 µg/mL with E. cloacae UFR70; 1 µg/mL with E. cloacae UFR85. Also, the “MIC, combination” value is at most 0.125 µg/mL with E. coli 190317 [3], 2 µg/mL in the assay on K. pneumoniae UFR24 and 4 µg/mL with E. cloacae P99 [4]. The molecule further gave an IC50 at AmpC (PAE) of 0.11 µM.
`NC[C@@H]1CC(=NOCC(N)=O)[C@@H]2CN1C(=O)N2OS(=O)(=O)O` (mixture of isomers) [Example 5, sodium and 2,2,2-trifluroacetate [(2S,5S)-4-(2-amino-2-oxo-ethoxy)imino-2-(azaniumylmethyl)-7-oxo-1,6-diazabicyclo[3.2.1]octan-6-yl] sulfate]: the MIC with E. coli 190317 [1] was 0.25 µg/mL; in the assay on E. cloacae P99 [2], 0.063 µg/mL; with K. pneumoniae 6299, above 32 µg/mL; in the assay with E. coli 131119, above 32 µg/mL; in the assay on K. pneumoniae BAA-1898 it was above 32 µg/mL; in the assay on P. aeruginosa CIP105250 it was 32 µg/mL. In addition, the “MIC, combination” value in the assay on E. cloacae 260508 was below 0.25 µg/mL; in the assay with P. aeruginosa UFR35, below 0.25 µg/mL; with P. aeruginosa UFR92, below 0.25 µg/mL; in the assay with P. aeruginosa UFR90, below 0.25 µg/mL; with E. coli UFR32 it was at most 0.25 µg/mL; in the assay with K. oxytoca UFR21 it was at most 0.25 µg/mL. The “MIC, combination” value with K. pneumoniae 160143 was 0.5 µg/mL; in the assay on E. cloacae UFR70, 1 µg/mL; in the assay on E. cloacae UFR85, at most 0.25 µg/mL; in the assay on E. coli 190317 [3], below 0.25 µg/mL; in the assay on K. pneumoniae UFR24, 1 µg/mL; with E. cloacae P99 [4], below 0.25 µg/mL. The “MIC, combination” value in the assay with E. cloacae UFR38 was below 0.25 µg/mL. Half-maximal inhibition against AmpC (PAE) (IC50) required 12 µM.
For the molecule `NC[C@@H]1CC(=O)[C@@H]2CN1C(=O)N2OS(=O)(=O)O` [Example 6, 2,2,2-trifluroacetate and sodium [(2S,5S)-2-(azaniumylmethyl)-4,7-dioxo-1,6-diazabicyclo[3.2.1]octan-6-yl] sulfate], the MIC with E. coli 190317 [1] is 1 µg/mL; in the assay on E. cloacae P99 [2] it was 1 µg/mL; with K. pneumoniae 6299, above 32 µg/mL; in the assay on E. coli 131119 it was 2 µg/mL; with K. pneumoniae BAA-1898, above 32 µg/mL; in the assay on P. aeruginosa CIP105250, 16 µg/mL. In addition, the “MIC, combination” value in the assay with E. cloacae 260508 is at most 0.25 µg/mL; in the assay with P. aeruginosa UFR35 it was below 0.25 µg/mL; in the assay on P. aeruginosa UFR92, at most 0.25 µg/mL; with P. aeruginosa UFR90, below 0.25 µg/mL; in the assay on E. coli UFR32, below 0.25 µg/mL; with K. oxytoca UFR21, at most 0.25 µg/mL. The “MIC, combination” value was 2 µg/mL in the assay on K. pneumoniae 160143; 2 µg/mL with E. cloacae UFR70; at most 0.25 µg/mL in the assay with E. cloacae UFR85; below 0.25 µg/mL with E. coli 190317 [3]; 4 µg/mL in the assay on K. pneumoniae UFR24; below 0.25 µg/mL in the assay with E. cloacae P99 [4]. For the same molecule, in the assay on E. cloacae UFR38, the “MIC, combination” value was below 0.25 µg/mL. Further, on AmpC (PAE), the IC50 is 38 µM.
